{
  "source": "ChEMBL document CHEMBL2203177",
  "about": "“Tuning the activity of a short arg-trp antimicrobial Peptide by lipidation of a C- or N-terminal lysine side-chain” (ACS Med Chem Lett, 2012)",
  "key": {"[1]": {"test": "Hemolytic activity against human RBC assessed as hemoglobin leakage at 250 ug/ml", "format": "ADME, cell-based, Erythrocyte", "conditions": "human red blood cells, read-out: Activity"}, "[2]": {"test_system": "Bacillus subtilis", "test": "Antibacterial activity against Bacillus subtilis 168 DSM 402 assessed as growth inhibition after 18 hrs", "format": "functional", "conditions": "subsp. subtilis str. 168 DSM 402, 18 h"}, "[3]": {"test_system": "Acinetobacter baumannii", "test": "Antibacterial activity against Acinetobacter baumannii DSM 30007 assessed as growth inhibition after 18 hrs", "format": "functional", "conditions": "DSM 30007, 18 h"}, "[4]": {"test_system": "Escherichia coli", "test": "Antibacterial activity against Escherichia coli DSM 30083 assessed as growth inhibition after 18 hrs", "format": "functional", "conditions": "DSM 30083, 18 h"}, "[5]": {"test_system": "MCF7", "test": "Selectivity index, ratio of IC50 for human GM5657 cells to IC50 for human MCF7 cells", "format": "functional"}, "[6]": {"test_system": "Staphylococcus aureus", "test": "Antibacterial activity against Staphylococcus aureus DSM 20231 assessed as growth inhibition after 18 hrs", "format": "functional", "conditions": "DSM 20231, 18 h"}, "[7]": {"test": "Hemolytic activity against human RBC assessed as hemoglobin leakage at 500 ug/ml after 5 mins", "format": "ADME, cell-based, Erythrocyte", "conditions": "human red blood cells, read-out: Activity"}, "[8]": {"test": "Hemolytic activity against human RBC assessed as hemoglobin leakage", "format": "ADME, cell-based, Erythrocyte", "conditions": "human red blood cells"}, "[9]": {"test_system": "HT-29", "test": "Cytotoxicity against human HT-29 cells assessed as inhibition of cell viability after 48 hrs by crystal violet assay", "format": "functional, cell-based", "conditions": "HT-29, 48 h"}, "[10]": {"test": "Cytotoxicity against human GM5657 cells assessed as inhibition of cell viability after 48 hrs by crystal violet assay", "format": "cell-based", "conditions": "GM5657, 48 h"}, "[11]": {"test_system": "Staphylococcus aureus", "test": "Antibacterial activity against Staphylococcus aureus ATCC 43300 assessed as growth inhibition after 18 hrs", "format": "functional", "conditions": "ATCC 43300, 18 h"}, "[12]": {"test": "Selectivity index, ratio of IC50 for human GM5657 cells to IC50 for human HT29 cells", "format": "functional"}, "[13]": {"test_system": "Pseudomonas aeruginosa", "test": "Antibacterial activity against Pseudomonas aeruginosa DSM 50071 assessed as growth inhibition after 18 hrs", "format": "functional", "conditions": "DSM 50071, 18 h"}, "[14]": {"test_system": "Bacillus subtilis", "test": "Bactericidal activity against Bacillus subtilis 168 (trpC2)2 assessed as survival rate at twice MIC concentration incubated for 15 mins measured after 18 hrs", "format": "functional, subsp. subtilis str. 168 (trpC2)2"}, "[15]": {"test": "Ratio of IC50 for human GM5657 cells to MIC for Staphylococcus aureus DSM 20231", "format": "functional"}, "[16]": {"test_system": "MCF7", "test": "Cytotoxicity against human MCF7 cells assessed as inhibition of cell viability after 48 hrs by crystal violet assay", "format": "functional, cell-based", "conditions": "MCF7, 48 h"}},
  "note": "Peptide text beside a SMILES is read from it. * marks the point of attachment. Octanoyl = CCCCCCCC(=O)*",
  "data": [
    {"compound": "CCCCCCCC(=O)NCCCC[C@H](NC(=O)[C@H](Cc1c[nH]c2ccccc12)NC(=O)[C@H](CCCNC(=N)N)NC(=O)[C@H](Cc1c[nH]c2ccccc12)NC(=O)[C@H](CCCNC(=N)N)NC(=O)[C@H](Cc1c[nH]c2ccccc12)NC(=O)[C@@H](N)CCCNC(=N)N)C(N)=O", "note": "(H-RWRWRWK(Octanoyl)-NH2)", "values": [
      {"measurement": "hemolysis at 250 ug/ml", "setting": "[1]", "result": 10, "unit": "%"},
      {"measurement": "MIC", "setting": "[2]", "result": 0.6, "unit": "µM"},
      {"measurement": "MIC", "setting": "[3]", "result": 5, "unit": "µM"},
      {"measurement": "MIC", "setting": "[4]", "result": 2, "unit": "µM"},
      {"measurement": "Ratio IC50", "setting": "[5]", "result": 7},
      {"measurement": "MIC", "setting": "[6]", "result": 2, "unit": "µM"},
      {"measurement": "hemolysis at 5 min, 500 ug/ml", "setting": "[7]", "result": 48, "unit": "%"},
      {"measurement": "HC50", "setting": "[8]", "result": 285, "unit": "µM"},
      {"measurement": "IC50", "setting": "[9]", "result": 4.5, "unit": "µM"},
      {"measurement": "IC50", "setting": "[10]", "result": 31.3, "unit": "µM"},
      {"measurement": "MIC", "setting": "[11]", "result": 2, "unit": "µM"},
      {"measurement": "Ratio IC50", "setting": "[12]", "result": 7},
      {"measurement": "MIC", "setting": "[13]", "result": 18, "unit": "µM"},
      {"measurement": "Survival", "setting": "[14]", "result": 0.261, "unit": "%"},
      {"measurement": "Ratio IC50", "setting": "[15]", "result": 15},
      {"measurement": "IC50", "setting": "[16]", "result": 4.7, "unit": "µM"}
    ]}
  ]
}
